Values joined by “and” are separate entries in the source; they are usually repeats but may differ in a detail not shown here. Equal entries are not always repeated. Toxic doses and inconclusive results are not listed. The calls were made as follows: active = survival T/C of 150% or more; inactive = T/C below 125% in these data.
Tested on: P388 leukemia ip, CD2F1 mice, survival T/C
Test: NCI In Vivo Anticancer Drug Screen. Data for tumor model P388 Leukemia (intraperitoneal) in CD2F1 (CDF1) mice
Conditions: endpoint: median survival time, higher = longer survival
Summary of the method: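 Mice carrying the transplanted tumor received test compound or vehicle. Survival was recorded in each group, and the value is the treated-group measurement divided by that of the vehicle-treated control group.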

[1] = dose: 50.0 mg/kg/injection, schedule: Q01DX005 (ip), vehicle: saline with Tween-80
[2] = dose: 100.0 mg/kg/injection, schedule: Q01DX005 (ip), vehicle: saline with Tween-80
[3] = dose: 200.0 mg/kg/injection, schedule: Q01DX005 (ip), vehicle: saline with Tween-80
[4] = dose: 60.0 mg/kg/injection, schedule: Q01DX005 (ip), vehicle: saline with Tween-80
[5] = dose: 120.0 mg/kg/injection, schedule: Q01DX005 (ip), vehicle: saline with Tween-80
[6] = dose: 240.0 mg/kg/injection, schedule: Q01DX005 (ip), vehicle: saline with Tween-80
[7] = dose: 50.0 mg/kg/injection, schedule: Q01DX009 (ip), vehicle: saline with Tween-80
[8] = dose: 100.0 mg/kg/injection, schedule: Q01DX009 (ip), vehicle: saline with Tween-80
[9] = dose: 100.0 mg/kg/injection, schedule: Q01DX009 (ip), vehicle: Klucel (hydroxypropylcellulose) (HPC)
[10] = dose: 200.0 mg/kg/injection, schedule: Q01DX009 (ip), vehicle: Klucel (hydroxypropylcellulose) (HPC)
[11] = dose: 200.0 mg/kg/injection, schedule: Q01DX009 (ip), vehicle: saline with Tween-80
[12] = dose: 400.0 mg/kg/injection, schedule: Q01DX009 (ip), vehicle: saline with Tween-80
[13] = dose: 50.0 mg/kg/injection, schedule: Q01DX009 (ip), vehicle: saline
[14] = dose: 100.0 mg/kg/injection, schedule: Q01DX009 (ip), vehicle: saline
[15] = dose: 200.0 mg/kg/injection, schedule: Q01DX009 (ip), vehicle: saline
[16] = dose: 25.0 mg/kg/injection, schedule: Q01DX009 (ip), vehicle: saline with Tween-80

Measured: T/C

N#CC1Sc2ccccc2N1C(=O)c1ccccc1 (stereo not given)
inactive: [1] 103 % of control | [2] 100 % of control | [3] 98 % of control

Cc1cc2c(cc1C)C(=O)CCC(=O)N2
inactive: [4] 102 % of control | [5] 97 % of control | [6] 96 % of control

CC(C)SC(=S)Nc1cc(Cl)c(Cl)cc1Cl
inactive: [7] 98 % of control | [8] 102 % of control

CCCCCCCCCCC[N+]1(CC)CCCCC1
inactive: dose: 0.78 mg/kg/injection, schedule: Q01DX009 (ip), vehicle: saline 112 % of control and 93 % of control | dose: 1.56 mg/kg/injection, schedule: Q01DX009 (ip), vehicle: saline 100 % of control and 102 % of control | dose: 3.12 mg/kg/injection, schedule: Q01DX009 (ip), vehicle: saline 112 % of control and 97 % of control | dose: 6.25 mg/kg/injection, schedule: Q01DX009 (ip), vehicle: saline 124 % of control

CN(C)C1C(=O)C(C(=O)NCN2CCN(CCO)CC2)=C(O)C2(O)C(=O)C3=C(O)c4c(O)cccc4C(C)(O)C3CC12 (stereo not given)
inactive: dose: 25.0 mg/kg/injection, schedule: Q01DX005 (ip), vehicle: saline 104 % of control | dose: 50.0 mg/kg/injection, schedule: Q01DX005 (ip), vehicle: saline 102 % of control | dose: 100.0 mg/kg/injection, schedule: Q01DX005 (ip), vehicle: saline 104 % of control | dose: 200.0 mg/kg/injection, schedule: Q01DX005 (ip), vehicle: saline 95 % of control

COC(=O)c1noc2c1CSc1ccccc1-2
inactive: dose: 100.0 mg/kg/injection, schedule: Q04DX002 (ip), vehicle: saline with Tween-80 104 % of control | dose: 200.0 mg/kg/injection, schedule: Q04DX002 (ip), vehicle: saline with Tween-80 99 % of control

COC1=C(C)C(=O)c2c(C(C)C)cc(O)c(C=O)c2C1=O
inactive: dose: 3.0 mg/kg/injection, schedule: Q01DX009 (ip), vehicle: Klucel (hydroxypropylcellulose) (HPC) 100 % of control | dose: 6.0 mg/kg/injection, schedule: Q01DX009 (ip), vehicle: Klucel (hydroxypropylcellulose) (HPC) 100 % of control | dose: 12.0 mg/kg/injection, schedule: Q01DX009 (ip), vehicle: Klucel (hydroxypropylcellulose) (HPC) 109 % of control | dose: 24.0 mg/kg/injection, schedule: Q01DX009 (ip), vehicle: Klucel (hydroxypropylcellulose) (HPC) 109 % of control

Cc1cc2c(C#N)c3ccccc3c(=O)n2c2ccccc12
inactive: dose: 50.0 mg/kg/injection, schedule: Q01DX005 (ip), vehicle: Klucel (hydroxypropylcellulose) (HPC) 98 % of control | dose: 100.0 mg/kg/injection, schedule: Q01DX005 (ip), vehicle: Klucel (hydroxypropylcellulose) (HPC) 96 % of control | dose: 200.0 mg/kg/injection, schedule: Q01DX005 (ip), vehicle: Klucel (hydroxypropylcellulose) (HPC) 100 % of control

O=C(Nc1ccccc1)c1cnc[nH]1
inactive: dose: 25.0 mg/kg/injection, schedule: Q01DX009 (ip), vehicle: Klucel (hydroxypropylcellulose) (HPC) 99 % of control | dose: 50.0 mg/kg/injection, schedule: Q01DX009 (ip), vehicle: Klucel (hydroxypropylcellulose) (HPC) 102 % of control | [9] 102 % of control | [10] 96 % of control

COC(=O)C1=C/CCCN(CCc2ccccc2)/C=C\1C(=O)OC
inactive: dose: 100.0 mg/kg/injection, schedule: Q01DX001 (ip), vehicle: alcohol 103 % of control | dose: 200.0 mg/kg/injection, schedule: Q01DX001 (ip), vehicle: alcohol 101 % of control | dose: 400.0 mg/kg/injection, schedule: Q01DX001 (ip), vehicle: alcohol 97 % of control

CCOC(=O)NC(Cc1cc(OC)c(OC)cc1Br)c1ccc(OC)c(OC)c1 (stereo not given)
inactive: [1] 89 % of control | [2] 89 % of control | [3] 100 % of control

O=C1OCC/C1=C1/NC2CCCCC2NC1=O (stereo not given)
inactive: [7] 94 % of control | [8] 94 % of control

CCCN(CCC)c1ccc(N=Nc2ccccc2C(=O)O)cc1
inactive: [7] 102 % of control | [8] 105 % of control | [11] 112 % of control | [12] 110 % of control

COc1ccc(-n2c(N)c(C#N)c3c(c2=S)CCC3)cc1
inactive: dose: 50.0 mg/kg/injection, schedule: Q01DX005 (ip), vehicle: Klucel + Tween-80 106 % of control | dose: 100.0 mg/kg/injection, schedule: Q01DX005 (ip), vehicle: Klucel + Tween-80 99 % of control | dose: 200.0 mg/kg/injection, schedule: Q01DX005 (ip), vehicle: Klucel + Tween-80 92 % of control

O=S(=O)(Cl)C(F)(F)C(F)(F)C(F)(F)C(F)(F)F
inactive: [13] 102 % of control | [14] 103 % of control | [15] 88 % of control

CC(=NCCN=C(C)c1ccccc1O)c1ccccc1O.[Cu]
inactive: [7] 105 % of control | [8] 99 % of control | [11] 89 % of control

COC1=Cc2nc3ccccc3nc2OC1(C)C
inactive: [4] 110 % of control | [5] 100 % of control | [6] 92 % of control

O=C1CSC(=O)N1c1ccc(Cl)c(Cl)c1
inactive: dose: 12.5 mg/kg/injection, schedule: Q01DX009 (ip), vehicle: saline 94 % of control | dose: 25.0 mg/kg/injection, schedule: Q01DX009 (ip), vehicle: saline 89 % of control | [7] 95 % of control | [13] 88 % of control | [8] 87 % of control

CCOC(=O)CC1CC(C)(C(=O)OCC)C(=O)CC1=O (stereo not given)
inactive: [1] 102 % of control | [2] 104 % of control | [3] 95 % of control

CC(C)(C)C1CC=CC(=O)CC1 (stereo not given)
inactive: [9] 111 % of control | [10] 119 % of control

Nc1c(Cl)ccc2cccnc12
inactive: dose: 50.0 mg/kg/injection, schedule: Q01DX005 (ip), vehicle: saline + Tween-80 + alcohol 107 % of control | dose: 100.0 mg/kg/injection, schedule: Q01DX005 (ip), vehicle: saline + Tween-80 + alcohol 107 % of control | dose: 200.0 mg/kg/injection, schedule: Q01DX005 (ip), vehicle: saline + Tween-80 + alcohol 110 % of control

CC(C)(C)c1cc(C(c2ccccc2)(c2ccccc2)c2ccccc2)cc2c1OP(F)(c1ccccc1)(c1ccccc1)N2
inactive: [7] 91 % of control | [8] 95 % of control | [11] 91 % of control

Cc1nc2c(cc1[N+](=O)[O-])C(=O)NCCN2
inactive: dose: 25.0 mg/kg/injection, schedule: Q04DX003 (ip), vehicle: Klucel (hydroxypropylcellulose) (HPC) 91 % of control | dose: 50.0 mg/kg/injection, schedule: Q04DX003 (ip), vehicle: Klucel (hydroxypropylcellulose) (HPC) 100 % of control | dose: 100.0 mg/kg/injection, schedule: Q04DX003 (ip), vehicle: Klucel (hydroxypropylcellulose) (HPC) 96 % of control

O=C(Oc1ccccc1)N1CCCSC1=S
inactive: [4] 98 % of control | [5] 100 % of control

CCOC(=O)CCC1(C(=O)OC)C(=O)CCCCC/C=C/1C(=O)OC (stereo not given)
inactive: [8] 113 % of control | [11] 104 % of control | [12] 104 % of control

CC(C)OC1CC(C)(O)Cc2cc3c(c(O)c21)C(=O)c1c(O)cc2c(c1C3=O)OC1OC2(C)C(O)C(N(C)C)C1O (stereo not given)
inactive: dose: 2.0 mg/kg/injection, schedule: Q01DX009 (ip), vehicle: other 101 % of control | dose: 4.0 mg/kg/injection, schedule: Q01DX009 (ip), vehicle: other 120 % of control | dose: 8.0 mg/kg/injection, schedule: Q01DX009 (ip), vehicle: other 106 % of control | dose: 16.0 mg/kg/injection, schedule: Q01DX009 (ip), vehicle: other 87 % of control

CCc1nc(N)nc(N)c1-c1ccc(Cl)c(N=CN(C)C)c1
inactive: [4] 102 % of control | [5] 108 % of control | [6] 108 % of control

COC(=O)C1NC(C(O)C(O)C(O)C(O)CO)SC1(C)C (stereo not given)
inactive: [13] 94 % of control | [14] 102 % of control | [15] 100 % of control

COc1cc(/C=C2/SC(=S)NC2=O)cc(OC)c1OC
inactive: [16] 100 % of control | [7] 102 % of control | [8] 96 % of control | [11] 96 % of control

CSc1nc2ccccc2[nH]1
inactive: dose: 6.25 mg/kg/injection, schedule: Q01DX009 (ip), vehicle: saline with Tween-80 101 % of control | dose: 12.5 mg/kg/injection, schedule: Q01DX009 (ip), vehicle: saline with Tween-80 106 % of control | [16] 106 % of control | [7] 110 % of control
